The record followed here is US7208495B2, “Benzo-fused 5-membered hetrocycle compounds, process for preparation of the same, and use thereof” (Takeda Pharmaceutical Company Limited, priority 2001, dated 2007).

For one test, the system named is mixed rat glia culture. Put plainly: Neurogenesis enhancing activity in mixed rat glia culture (β III-tubulin positive cell area). Format: cell-based. Conditions: compound 1 μM; serum-free medium, five days differentiation; β III-tubulin positive cell area by image analysis versus control without compound. The source says: Neurogenesis Enhancing Activity in Mixed Rat Glia Culture
Neonatal of SD rats were purchased from Japan Charles River Co, Ltd. A […] nylon cell strainer was purchased from Beckton-Dickinson. DMEM/F12 culture medium, antibiotic, and N2 additive were purchased from Life Technology Corp. Anti β III-tubulin antibody was purchased from Sigma Corp. DAKO EnVision+/HRP kit was purchased from Dako Japan Corp. As for other reagents, commercially available guaranteed reagents were used.
Rat mixed glia culture was prepared from the cerebrums of 2 day old neonatal SD rat. The neonates were anaesthetised with ice cooling, were decapitated, and their brains were quickly removed. The meninges were carefully removed, and the cerebral cortex was separated therefrom. The cerebral cortex was passed through 40 micron nylon mesh, and it was physically dissociated. Cell suspension was then layered in a cell dispersion liquid on serum, and the cells were fractionated by non-continuous density gradient centrifugation. The precipitate was washed twice with growth culture medium (10% FBS and antibiotic. added to DMEM/F12), and it was dispersed. Mixed glia culture was seeded and inoculated onto a collagen coated 96 well multiplate with 1×10^5 cells per well, and was cultured for five days.
After culturing for five days, mixed glia culture was used in a differentiation assay. Growth culture medium was substituted with a serum-free medium (N2 supplememt and antibiotic added to DMEM/F12), and test compound was added simultaneously. After differentiation for five days, culture was fixed with 4% paraformaldehyde, and was immunostained with the mouse anti β III-tubulin monoclonal antibody and the DAKO EnVison+/HRP kit.
β III-tubulin positive cell area were quantified by image analysis, and was compared to when compound (I) was added (1 μM) and when it was not added (control).

Test [1] relates to human neuroblastoma SK-N-SH cells. Put plainly: Cytoprotection activity against PI-3 kinase inhibitor LY-294002 in human neuroblastoma SK-N-SH cells. Conditions: test compound 1.0 μM with LY-294002 30 μM, Alamarblue reduction one day after start, (A−B)/(C−B)×100. Format: cell-based. How it is done:
Cytoprotection activity against a PI-3 kinase inhibitor LY-294002 in human neuroblastoma SK-N-SH cells.
Human neuroblastoma SK-N-SH cells were purchased from American Type Cell Culture (ATCC). DMEM/F-12 culture medium and potassium/magnesium-free phosphate buffer saline (PBS(−)) were purchased from Nikken Biomedical Co., Ltd., N2 additives and EDTA solution were purchased from GIBCO BRL Company, fetal bovine serum (FCS) and a mixed solution of penicillin (5000 U/ml) and streptomycin (5 mg/ml) were purchased from BioWhittaker Inc., Alamarblue™ reagent was purchased from Wako Pure Chemical Industries Ltd., culture flasks were purchased from Falcon Company, collagen-coated 96-well multi-plates were purchased from Iwaki Glass Co., Ltd., and LY-294002 was purchased from Alexis Biochemicals, respectively. As for other reagents, commercially available guaranteed reagents were used.
A DMEM/F-12 culture medium which contains 5% FCS, 0.5% N2, 10 mM HEPES, and a 1% mixed solution of penicillin (5000 U/ml) and streptomycin (5 mg/ml) was used to subculture SK-N-SH cells in a carbon dioxide incubator under a mixed gas atmosphere consisting of 10% carbon dioxide/90% air. After being cultivated to a sub-confluent stage, the cells were detached with a PBS(−) solution containing 2.5 mM EDTA and seeded onto collagen-coated 96-well multi-plates in the proportion of 10^4/100 μL well. After cultivation for 24 hours, the cultured cells were used in a cytotoxic test.
[…] of the culture medium of the SK-N-SH cells that were cultured as described above on the collagen-coated 96-well multi-plates was removed, and 40 μL each of LY-294002 having a final concentration of 30 μM and a test compound having a final concentration that was adjusted to be 1.0 μM were simultaneously added to initiate the cytotoxicity test. Note that each test compound used was diluted to a concentration of 10 mM with dimethyl sulfoxide, and the LY-294002 used was diluted to a concentration of 100 mM with dimethyl sulfoxide.
The survival activity of neural cells that were still living one day after the initiation of the cytotoxicity test was estimated by the reductive activity of Alamarblue™ reagent as an index. 20 μL of the culture medium was removed, 20 μL of Alamarblue™ reagent was added, and the amount of Alamarblue™ reagent reduced for 4 hours incubation was calorimetrically measured with a plate reader (WAKO SPECTRAMAX 250 Microplate Reader) (measurement wave length 570 nm, reference wave length 600 nm).
Cytoprotection activity was calculated by means of the following equation. Cytoprotection activity a test compound=(A−B)/(C−B)×100 (%) • A: The survival activity of a group consisting of a test compound and LY-294002 • B: The survival activity of a group consisting of LY-294002 • C: The survival activity of a control group (Results)
At least 4 wells for every 1 dose of a test compound was used to determine the cytoprotection activity of a test compound.

As for `COc1ccc(C2CCN(c3c(C)c(C)c4c(c3C)[C@@H](c3ccc(C)cc3)C(C)(C)O4)CC2)cc1OC` [Example 32, (3R)-4-(3,4-dimethoxyphenyl)-1-(2,2,4,6,7-pentamethyl-3-(4-methylphenyl)-2,3-dihydro-1-benzofuran-5-yl)piperidine], in the test on mixed rat glia culture, the “Differentiation/nacent promotion activity (%/control)” value came out at 371 %/control. Besides, the “Cell protection activity (%)” value in test [1] is given as 35.6%. The like results for `COc1ccc(N2CCN(c3c(C)c(C)c4c(c3C)C(O)(c3ccc(C)cc3)C(C)(C)O4)CC2)cc1` (stereo not shown) [Example 33, 1-(3-hydroxy-2,2,4,6,7-pentamethyl-3-(4-methylphenyl)-2,3-dihydro-1-benzofuran-5-yl)-4-(4-methoxyphenyl)piperazine] were, in that order, 448 %/control and 24.9%. The matching figures for `COc1ccc(N2CCN(c3c(C)c(C)c4c(c3C)C(c3ccc(C)cc3)C(C)(C)O4)CC2)cc1` (stereo not shown) [Example 46, 1-(2,2,4,6,7-pentamethyl-3-(4-methylphenyl)-2,3-dihydro-1-benzofuran-5-yl)-4-(4-methoxyphenyl)piperazine]: 842 %/control and 39.5%. `COc1ccc(N2CCN(c3c(C)c(C)c4c(c3C)C(Nc3ccccc3)C(C)(C)O4)CC2)cc1` (stereo not shown) [Example 58, N-phenyl-5-(4-(4-methoxyphenyl)piperazin-1-yl)-2,2,4,6,7-pentamethyl-2,3-dihydro-1-benzofuran-3-amine]: the “Cell protection activity (%)” value in test [1] came to 39.2%.

Regarding `COc1ccc(N2CCN(c3c(C)c(C)c4c(c3C)C(N3CCCCC3)C(C)(C)O4)CC2)cc1` (stereo not shown) [Example 59, 4-(4-methoxyphenyl)-1-(2,2,4,6,7-pentamethyl-3-piperidino-2,3-dihydro-1-benzofuran-5-yl)piperazine], in test [1], the “Cell protection activity (%)” value is 23.9%. On the same count and under the same terms, with `COc1ccc(C2CCN(c3c(C)c(C)c4c(c3C)C(c3ccc(C)cc3)C(C)(C)O4)CC2)cc1OC` (stereo not shown) [Example 79, 4-(3,4-dimethoxyphenyl)-1-(3-(4-methylphenyl)-2,2,4,6,7-pentamethyl-2,3-dihydro-1-benzofuran-5-yl)piperidine] the figure was 31.3%; with `COc1ccc(C2CCN(c3c(C)c(C)c4c(c3C)C(N3CCc5ccccc5CC3)C(C)(C)O4)CC2)cc1OC` (stereo not shown) [Example 92, 3-(5-(4-[3,4-dimethoxyphenyl]piperidino)-2,2,4,6,7-pentamethyl-2,3-dihydro-1-benzofuran-3-yl)-2,3,4,5-tetrahydro-1H-3-benzoazepin], 29.6%.
